These results are taken from PMC9120478 (Nature Communications, 2022).

Each structure is given as a SMILES string. Positions count from the first letter of the chain named. “And” between values parts separate entries of the source, which are not always exact repeats. Equal entries are not always repeated. Where two headings read alike, the source gives them in different places.

One assay has as its target T1, TRPV3-Y594A (Mus musculus, UniProt Q8K424, Y594A).
T1 construct: expressed in transfected cells; host or cells: HEK 293 S GnTI- cells (baculovirus transduction)
T1 sequence (Q8K424 1-791 Y594A): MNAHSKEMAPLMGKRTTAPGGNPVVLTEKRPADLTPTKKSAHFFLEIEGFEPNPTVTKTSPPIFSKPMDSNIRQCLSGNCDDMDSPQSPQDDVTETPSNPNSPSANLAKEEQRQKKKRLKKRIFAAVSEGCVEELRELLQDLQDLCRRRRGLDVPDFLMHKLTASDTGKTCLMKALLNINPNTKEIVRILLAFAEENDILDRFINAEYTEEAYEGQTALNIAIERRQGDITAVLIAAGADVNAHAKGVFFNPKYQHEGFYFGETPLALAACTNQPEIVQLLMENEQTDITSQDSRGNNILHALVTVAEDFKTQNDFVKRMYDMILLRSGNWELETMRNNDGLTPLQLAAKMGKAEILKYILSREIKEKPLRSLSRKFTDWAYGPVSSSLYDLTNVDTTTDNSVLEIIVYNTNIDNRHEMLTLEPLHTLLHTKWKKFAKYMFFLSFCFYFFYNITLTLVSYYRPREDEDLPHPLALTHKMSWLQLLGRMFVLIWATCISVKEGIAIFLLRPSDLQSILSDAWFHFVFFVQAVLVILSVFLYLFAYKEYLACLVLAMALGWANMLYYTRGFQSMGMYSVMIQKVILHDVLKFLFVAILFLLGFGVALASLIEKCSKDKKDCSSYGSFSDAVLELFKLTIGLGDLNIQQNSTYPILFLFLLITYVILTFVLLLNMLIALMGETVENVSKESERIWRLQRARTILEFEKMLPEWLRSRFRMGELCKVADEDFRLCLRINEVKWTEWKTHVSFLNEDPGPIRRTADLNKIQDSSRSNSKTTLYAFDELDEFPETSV
The assay can be described thus: Fura-2 ratiometric Ca2+ measurement, control application of 2-APB. The class given is cell-based. An excerpt:
The portal site in TRPV3 has not been previously shown to bind small-molecule inhibitors. This site, however, was originally proposed to be an entry pathway for local anesthetics to the pore of sodium channels[47]–[49] and found to accommodate cannabidiol in TRPV2, a closely-related representative of the vanilloid subfamily of TRP channels. […] We concluded that the Y594A mutation altered gating properties of TRPV3 and excluded this mutant from further analysis.
GFP-free C-terminally strep-tagged wild-type TRPV3, TRPV3-Y564A, TRPV3-Y594A, TRPV3-F633A, TRPV3-I663W, and TRPV3-F666A were expressed in HEK 293 S GnTI^− cells as previously described[41],[42],[53]. In short, 48 h after transduction, 1-ml aliquots of cell suspension were collected by centrifugation at 550 g for 5 min using an Eppendorf 5424 centrifuge. […] The washed cell pellets were kept on ice in the dark before taking an aliquot for fluorescence measurements. […] Fluorescence measurements were conducted using a QuantaMaster 40 spectrofluorometer (Photon Technology International) at room temperature in a quartz cuvette under constant stirring. […] Changes in intracellular Ca^2+ were measured by taking the ratio of fluorescence emitted at 510 nm at the excitation wavelength of 340 nm and 380 nm. […]

The test system of a further assay is wild-type TRPV3. To be noted: cited from earlier work; for F340/F380 change normalized to approximated maximal value at saturating 2-APB: WT, published before.
The next assay addresses T2, F666A mutant TRPV3 (Mus musculus, UniProt Q8K424, F666A).
T2 construct: expressed in transfected cells; host or cells: HEK 293 S GnTI- cells (baculovirus transduction)
T2 sequence (Q8K424 1-791 F666A): T1 sequence (Q8K424 1-791 Y594A) with A594Y, F666A
The assay can be described thus: Fura-2 ratiometric Ca2+ measurement, activation by 2-APB. The class given is cell-based. To be noted: for F340/F380 change normalized to approximated maximal value at saturating 2-APB: F666A. On the procedure:
GFP-free C-terminally strep-tagged wild-type TRPV3, TRPV3-Y564A, TRPV3-Y594A, TRPV3-F633A, TRPV3-I663W, and TRPV3-F666A were expressed in HEK 293 S GnTI^− cells as previously described[41],[42],[53]. In short, 48 h after transduction, 1-ml aliquots of cell suspension were collected by centrifugation at 550 g for 5 min using an Eppendorf 5424 centrifuge. The cells were resuspended in the pre-warmed modified HEPES-buffered saline (HBS) containing 118 mM NaCl, 4.8 mM KCl, 1 mM MgCl2, 5 mM D-glucose, and 10 mM HEPES pH 7.4 and 5 μg/ml Fura-2 AM (Thermo Fisher Scientific) and incubated for 45 min at 37 °C. The Fura-2-loaded cells were then centrifuged for 5 min at 550 g, resuspended in the pre-warmed, modified HBS and incubated again for 30 min at 37 °C in the dark. The cells were subsequently pelleted and washed twice in the modified HBS. The washed cell pellets were kept on ice in the dark before taking an aliquot for fluorescence measurements. […] We used the lower CaCl2 concentration than before[42],[28] (2.5 mM) to minimize non-specific effects, which often appeared as a drift in the Fura-2 signal at high Ca^2+ concentration, presumably due to cell death as a result of calcium overload. Fluorescence measurements were conducted using a QuantaMaster 40 spectrofluorometer (Photon Technology International) at room temperature in a quartz cuvette under constant stirring. After 60 s since the beginning, the recording was paused and 2-APB was added. After the addition of 2-APB, the recording was continued for the additional 140 s. Changes in intracellular Ca^2+ were measured by taking the ratio of fluorescence emitted at 510 nm at the excitation wavelength of 340 nm and 380 nm. […] The data were processed using Origin 9.0 (OriginLab) software.

Turning to `NCCOB(c1ccccc1)c1ccccc1` [2-APB], the “change in F340/F380 on control application of 2-APB, Y594A” value at TRPV3-Y594A is “barely detectable changes”. Also, the “F340/F380 change normalized to approximated maximal value at saturating 2-APB” value in the assay on wild-type TRPV3 (2-APB Conc 3.2, single experiments) is 0.1142 and 0.08511 and 0.06324 and 0.1042; with wild-type TRPV3 (2-APB Conc 102.4, single experiments), 0.8797 and 0.5873 and 0.8594 and 0.9531; with wild-type TRPV3 (2-APB Conc 204.8, single experiments) it was 0.97 and 1 and 0.6572 and 1.041; at F666A mutant TRPV3 (2-APB Conc 0.1, single experiments), 0.01591 and 0.01218 and 0.01441; on F666A mutant TRPV3 (2-APB Conc 0.3, single experiments), 0.0415 and 0.03827 and 0.03455; on F666A mutant TRPV3 (2-APB Conc 1, single experiments), 0.08549 and 0.07903 and 0.08027. For the same compound, the “F340/F380 change normalized to approximated maximal value at saturating 2-APB” value at F666A mutant TRPV3 (2-APB Conc 3, single experiments) is 0.1735 and 0.1693 and 0.1578; on F666A mutant TRPV3 (2-APB Conc 10, single experiments) it was 0.3611 and 0.3532 and 0.3454; on F666A mutant TRPV3 (2-APB Conc 30, single experiments), 0.6328 and 0.6126 and 0.5903; on F666A mutant TRPV3 (2-APB Conc 100, single experiments), 0.7746 and 0.7881 and 0.7839; on F666A mutant TRPV3 (2-APB Conc 300, single experiments), 0.7811 and 0.756 and 0.8326. Also, in the assay with wild-type TRPV3 (n = 4, published before), the “nHill of activation curve, wild-type TRPV3” value was 1.19 ± 0.09. Moreover, the half-maximal effective concentration (EC50) (usually the concentration at which the effect is half-maximal) with wild-type TRPV3 (n = 4, published before, read-out: EC50, 2-APB-induced activation of wild-type TRPV3) was 27.4 ± 4.5 µM; at F666A mutant TRPV3 (n = 3, read-out: EC50, 2-APB-induced activation of F666A), 20.7 ± 0.9 µM. In addition, the “nHill of activation curve, F666A” value on F666A mutant TRPV3 (n = 3) is 0.80 ± 0.02.
